Measurements from BigSolDB 2.1.

Q: For `N#CC(c1ccc(Cl)cc1)c1c(Cl)cc(-n2ncc(=O)[nH]c2=O)cc1Cl` (stereo not given), which solubility (mole fraction) (in DMF, 283.15 K) is on record?
A: The solubility (mole fraction) was 0.0254.

Q: What about the solubility (mole fraction) (in DMF, 288.15 K) of the same compound?
A: Its solubility (mole fraction) is 0.028.

Q: What about the solubility (mole fraction) (in DMF, 293.15 K) of the same compound?
A: The solubility (mole fraction) was 0.0309.

Q: And the solubility (mole fraction) (in DMF, 298.15 K)?
A: The solubility (mole fraction) was 0.0339.

Q: And the solubility (mole fraction) (in DMF, 303.15 K)?
A: Its solubility (mole fraction) is 0.0372.

Q: What about the solubility (mole fraction) (in DMF, 308.15 K) of the same compound?
A: The solubility (mole fraction) was 0.0407.

Q: What about the solubility (mole fraction) (in DMF, 313.15 K) of the same compound?
A: The solubility (mole fraction) was 0.0444.

Q: And the solubility (mole fraction) (in DMF, 318.15 K)?
A: Its solubility (mole fraction) is 0.0484.

Q: And the solubility (mole fraction) (in DMF, 323.15 K)?
A: Its solubility (mole fraction) is 0.0527.

Q: And the solubility (mole fraction) (in acetone, 283.15 K)?
A: The solubility (mole fraction) was 0.012.

Q: What about the solubility (mole fraction) (in acetone, 288.15 K) of the same compound?
A: The solubility (mole fraction) was 0.014.

Q: What about the solubility (mole fraction) (in acetone, 293.15 K) of the same compound?
A: Its solubility (mole fraction) is 0.0162.

Q: And the solubility (mole fraction) (in acetone, 298.15 K)?
A: Its solubility (mole fraction) is 0.0186.

Q: And the solubility (mole fraction) (in acetone, 303.15 K)?
A: The solubility (mole fraction) was 0.0215.

Q: What about the solubility (mole fraction) (in acetone, 308.15 K) of the same compound?
A: The solubility (mole fraction) was 0.0247.

Q: What about the solubility (mole fraction) (in acetone, 313.15 K) of the same compound?
A: The solubility (mole fraction) was 0.0281.

Q: What about the solubility (mole fraction) (in acetone, 318.15 K) of the same compound?
A: Its solubility (mole fraction) is 0.032.

Q: And the solubility (mole fraction) (in acetone, 323.15 K)?
A: Its solubility (mole fraction) is 0.0361.

Q: And the solubility (mole fraction) (in acetonitrile, 283.15 K)?
A: The solubility (mole fraction) was 0.00825.

Q: And the solubility (mole fraction) (in acetonitrile, 288.15 K)?
A: Its solubility (mole fraction) is 0.00972.

Q: What about the solubility (mole fraction) (in acetonitrile, 293.15 K) of the same compound?
A: Its solubility (mole fraction) is 0.0115.

Q: And the solubility (mole fraction) (in acetonitrile, 298.15 K)?
A: The solubility (mole fraction) was 0.0135.

Q: What about the solubility (mole fraction) (in acetonitrile, 303.15 K) of the same compound?
A: The solubility (mole fraction) was 0.0157.

Q: And the solubility (mole fraction) (in acetonitrile, 308.15 K)?
A: Its solubility (mole fraction) is 0.0183.

Q: What about the solubility (mole fraction) (in acetonitrile, 313.15 K) of the same compound?
A: Its solubility (mole fraction) is 0.0211.

Q: And the solubility (mole fraction) (in acetonitrile, 318.15 K)?
A: The solubility (mole fraction) was 0.0244.

Q: What about the solubility (mole fraction) (in acetonitrile, 323.15 K) of the same compound?
A: The solubility (mole fraction) was 0.0279.

Q: What about the solubility (mole fraction) (in ethanol, 283.15 K) of the same compound?
A: The solubility (mole fraction) was 0.00168.

Q: And the solubility (mole fraction) (in ethanol, 288.15 K)?
A: The solubility (mole fraction) was 0.00204.

Q: What about the solubility (mole fraction) (in ethanol, 293.15 K) of the same compound?
A: Its solubility (mole fraction) is 0.00245.

Q: And the solubility (mole fraction) (in ethanol, 298.15 K)?
A: The solubility (mole fraction) was 0.00293.

Q: What about the solubility (mole fraction) (in ethanol, 303.15 K) of the same compound?
A: The solubility (mole fraction) was 0.00347.

Q: And the solubility (mole fraction) (in ethanol, 308.15 K)?
A: The solubility (mole fraction) was 0.00407.

Q: And the solubility (mole fraction) (in ethanol, 313.15 K)?
A: Its solubility (mole fraction) is 0.00476.

Q: And the solubility (mole fraction) (in ethanol, 318.15 K)?
A: The solubility (mole fraction) was 0.00555.

Q: And the solubility (mole fraction) (in ethanol, 323.15 K)?
A: The solubility (mole fraction) was 0.00641.

Q: What about the solubility (mole fraction) (in ethyl acetate, 283.15 K) of the same compound?
A: Its solubility (mole fraction) is 0.0052.

Q: And the solubility (mole fraction) (in ethyl acetate, 288.15 K)?
A: Its solubility (mole fraction) is 0.00634.

Q: And the solubility (mole fraction) (in ethyl acetate, 293.15 K)?
A: Its solubility (mole fraction) is 0.0077.

Q: What about the solubility (mole fraction) (in ethyl acetate, 298.15 K) of the same compound?
A: The solubility (mole fraction) was 0.00924.

Q: And the solubility (mole fraction) (in ethyl acetate, 303.15 K)?
A: Its solubility (mole fraction) is 0.0111.

Q: And the solubility (mole fraction) (in ethyl acetate, 308.15 K)?
A: Its solubility (mole fraction) is 0.0132.

Q: What about the solubility (mole fraction) (in ethyl acetate, 313.15 K) of the same compound?
A: Its solubility (mole fraction) is 0.0157.

Q: What about the solubility (mole fraction) (in ethyl acetate, 318.15 K) of the same compound?
A: Its solubility (mole fraction) is 0.0185.

Q: And the solubility (mole fraction) (in ethyl acetate, 323.15 K)?
A: Its solubility (mole fraction) is 0.0217.

Q: And the solubility (mole fraction) (in isopropanol, 283.15 K)?
A: The solubility (mole fraction) was 0.000798.

Q: And the solubility (mole fraction) (in isopropanol, 288.15 K)?
A: The solubility (mole fraction) was 0.00102.

Q: And the solubility (mole fraction) (in isopropanol, 293.15 K)?
A: The solubility (mole fraction) was 0.00129.

Q: What about the solubility (mole fraction) (in isopropanol, 298.15 K) of the same compound?
A: Its solubility (mole fraction) is 0.00163.

Q: What about the solubility (mole fraction) (in isopropanol, 303.15 K) of the same compound?
A: Its solubility (mole fraction) is 0.00204.

Q: What about the solubility (mole fraction) (in isopropanol, 308.15 K) of the same compound?
A: Its solubility (mole fraction) is 0.00251.

Q: And the solubility (mole fraction) (in isopropanol, 313.15 K)?
A: The solubility (mole fraction) was 0.00308.

Q: What about the solubility (mole fraction) (in isopropanol, 318.15 K) of the same compound?
A: The solubility (mole fraction) was 0.00374.

Q: What about the solubility (mole fraction) (in isopropanol, 323.15 K) of the same compound?
A: The solubility (mole fraction) was 0.00455.

Q: And the solubility (mole fraction) (in methanol, 283.15 K)?
A: The solubility (mole fraction) was 0.00233.

Q: What about the solubility (mole fraction) (in methanol, 288.15 K) of the same compound?
A: The solubility (mole fraction) was 0.0027.

Q: And the solubility (mole fraction) (in methanol, 293.15 K)?
A: The solubility (mole fraction) was 0.00316.

Q: And the solubility (mole fraction) (in methanol, 298.15 K)?
A: Its solubility (mole fraction) is 0.00369.

Q: What about the solubility (mole fraction) (in methanol, 303.15 K) of the same compound?
A: Its solubility (mole fraction) is 0.00426.

Q: And the solubility (mole fraction) (in methanol, 308.15 K)?
A: Its solubility (mole fraction) is 0.00494.

Q: What about the solubility (mole fraction) (in methanol, 313.15 K) of the same compound?
A: Its solubility (mole fraction) is 0.00566.

Q: And the solubility (mole fraction) (in methanol, 318.15 K)?
A: The solubility (mole fraction) was 0.00646.

Q: And the solubility (mole fraction) (in methanol, 323.15 K)?
A: Its solubility (mole fraction) is 0.00737.

Q: What about the solubility (mole fraction) (in n-butanol, 283.15 K) of the same compound?
A: Its solubility (mole fraction) is 0.000481.

Q: What about the solubility (mole fraction) (in n-butanol, 288.15 K) of the same compound?
A: Its solubility (mole fraction) is 0.000639.

Q: And the solubility (mole fraction) (in n-butanol, 293.15 K)?
A: Its solubility (mole fraction) is 0.000851.

Q: And the solubility (mole fraction) (in n-butanol, 298.15 K)?
A: The solubility (mole fraction) was 0.0011.

Q: What about the solubility (mole fraction) (in n-butanol, 303.15 K) of the same compound?
A: The solubility (mole fraction) was 0.00142.

Q: And the solubility (mole fraction) (in n-butanol, 308.15 K)?
A: The solubility (mole fraction) was 0.00181.

Q: What about the solubility (mole fraction) (in n-butanol, 313.15 K) of the same compound?
A: Its solubility (mole fraction) is 0.00229.

Q: What about the solubility (mole fraction) (in n-butanol, 318.15 K) of the same compound?
A: The solubility (mole fraction) was 0.00288.

Q: What about the solubility (mole fraction) (in n-butanol, 323.15 K) of the same compound?
A: Its solubility (mole fraction) is 0.0036.

Q: What about the solubility (mole fraction) (in n-propanol, 283.15 K) of the same compound?
A: Its solubility (mole fraction) is 0.00118.

Q: And the solubility (mole fraction) (in n-propanol, 288.15 K)?
A: The solubility (mole fraction) was 0.00146.

Q: And the solubility (mole fraction) (in n-propanol, 293.15 K)?
A: The solubility (mole fraction) was 0.00179.

Q: And the solubility (mole fraction) (in n-propanol, 298.15 K)?
A: Its solubility (mole fraction) is 0.00221.

Q: What about the solubility (mole fraction) (in n-propanol, 303.15 K) of the same compound?
A: Its solubility (mole fraction) is 0.00268.

Q: What about the solubility (mole fraction) (in n-propanol, 308.15 K) of the same compound?
A: The solubility (mole fraction) was 0.00321.

Q: What about the solubility (mole fraction) (in n-propanol, 313.15 K) of the same compound?
A: Its solubility (mole fraction) is 0.00383.

Q: What about the solubility (mole fraction) (in n-propanol, 318.15 K) of the same compound?
A: The solubility (mole fraction) was 0.0046.

Q: And the solubility (mole fraction) (in n-propanol, 323.15 K)?
A: The solubility (mole fraction) was 0.00543.

Q: And the solubility (mole fraction) (in toluene, 283.15 K)?
A: The solubility (mole fraction) was 0.000263.

Q: What about the solubility (mole fraction) (in toluene, 288.15 K) of the same compound?
A: The solubility (mole fraction) was 0.000371.

Q: And the solubility (mole fraction) (in toluene, 293.15 K)?
A: The solubility (mole fraction) was 0.00052.

Q: And the solubility (mole fraction) (in toluene, 298.15 K)?
A: Its solubility (mole fraction) is 0.000692.

Q: And the solubility (mole fraction) (in toluene, 303.15 K)?
A: The solubility (mole fraction) was 0.000923.

Q: What about the solubility (mole fraction) (in toluene, 308.15 K) of the same compound?
A: The solubility (mole fraction) was 0.00123.

Q: And the solubility (mole fraction) (in toluene, 313.15 K)?
A: The solubility (mole fraction) was 0.00162.

Q: And the solubility (mole fraction) (in toluene, 318.15 K)?
A: The solubility (mole fraction) was 0.00211.

Q: What about the solubility (mole fraction) (in toluene, 323.15 K) of the same compound?
A: Its solubility (mole fraction) is 0.0027.
